In US8551984B2, “Aminopyrimidines as SYK inhibitors” (Merck Sharp & Dohme Corp., priority 2009, dated 2013):

Molecular target: recombinant human SYK (GST-hSYK fusion protein) (Homo sapiens, UniProt P43405)
Experiment: biochemical
[1] = rhSYK Activity (IC50), recombinant human GST-SYK 5 pM, ATP 25 μM, biotinylated substrate peptide 250 nM, HTRF, 10-dose titration

From the text: Homogeneous Time-Resolved Fluorescence (HTRF) Assay for the Recombinant Human SYK Enzyme:

Cc1cc(Nc2nccc(OCC3Cc4ccccc4N3)n2)cc(-c2cnc(C3(O)CCC3)s2)c1 (stereo not shown) [Example 108A-15]
IC50 (rhSYK Activity, Table 108A): 100 to 1000 nM

COC(=O)c1ccc(C(C)(C)c2ncc(-c3cc(C)cc(Nc4nccc(C(F)(F)F)n4)c3)s2)cc1 [Example 113D-9]
IC50 (rhSYK Activity, Table 113D, upper part): 100 to 1000 nM

Cc1cc(Nc2nccc(C(F)(F)F)n2)cc(-c2cnc(C3=CC(=O)NCC3)s2)c1 [Example 10B-1]
IC50 (rhSYK Activity, Table 10, Formula B): < 100 nM

COc1ccnc(Nc2cc(C)cc(-c3cnc(C4(O)CCC(C(=O)O)CC4)s3)c2)n1 (stereo not shown) [Example 33A-35]
IC50 (rhSYK Activity, Table 33-A): < 100 nM

COC(=O)C1CCC(C(=O)NC2CCC(O)(c3ncc(-c4cc(C)cc(Nc5nccc(C(F)(F)F)n5)c4)s3)CC2)CC1 (stereo not shown) [Example 54E-38]
IC50 (rhSYK Activity, Table 54E): < 100 nM

Cc1cc(Nc2nccc(OC3COC3)n2)cc(-c2cnc(C3(O)CCC3)s2)c1 [Example 94, 1-[5-(3-methyl-5-{[4-(oxetan-3-yloxy)pyrimidin-2-yl]amino}phenyl)-1,3-thiazol-2-yl]cyclobutanol]
IC50 [1]: < 100 nM

Cc1cc(Nc2nccc(C(F)(F)F)n2)cc(-c2cnc(C3(F)CCSCC3)s2)c1 [Example 132, N-{3-[2-(4-fluorotetrahydro-2H-thiopyran-4-yl)-1,3-thiazol-5-yl]-5-methylphenyl}-4-(trifluoromethyl)pyrimidin-2-amine]
IC50 [1]: 100 to 1000 nM

Cc1cc(Nc2nccc(C(F)(F)F)n2)cc(-c2cnc(C3(O)CCCN(C(=O)CCC(=O)N(C)C)CC3)s2)c1 (stereo not shown) [Example 54D-98]
IC50 (rhSYK Activity, Table 54D): < 100 nM

CCOC(=O)C1CC(C)C(O)(c2ncc(-c3cc(C)cc(Nc4nccc(C)n4)c3)s2)C(C)C1 (stereo not shown) [Example 113B-29]
IC50 (rhSYK Activity, Table 113B): < 100 nM

Cc1cc(Nc2nccc(C(F)(F)F)n2)cc(-c2cnc(C(=O)NC[C@@H](O)CO)s2)c1 [Example 87, N-[(2R)-2,3-dihydroxypropyl]-5-(3-methyl-5-{[4-(trifluoromethyl)pyrimidin-2-yl]amino}-phenyl)-1,3-thiazole-2-carboxamide]
IC50 [1]: < 100 nM

Cc1cc(Nc2nccc(C(F)(F)F)n2)cc(-c2cnc(C3(O)CCCN(C(=O)c4nnnn4C)CC3)s2)c1 (single isomer, unassigned) [Example 54D-57]
IC50 (rhSYK Activity, Table 54D): < 100 nM

Cc1cc(Nc2nccc(C(C)C)n2)cc(-c2cnc([C@]3(O)CC[C@@H](C(=O)OC(C)(C)C)CC3)s2)c1 [Example 33A-29]
IC50 (rhSYK Activity, Table 33-A): 100 to 1000 nM

Cc1cc(Nc2nccc(C(F)(F)F)n2)cc(-c2cnc(C3(NC(=O)NC(N)=O)CCNC(=O)CC3)s2)c1 (stereo not shown) [65-6]
IC50 (rhSYK Activity, Table 65): < 100 nM

Cc1cc(Nc2nccc(C(F)(F)F)n2)cc(-c2cnc([C@]3(O)CC[C@@H](NC(=O)Cc4ncccn4)CC3)s2)c1 [Example 54E-23]
IC50 (rhSYK Activity, Table 54E): < 100 nM

CCOC(=O)C1(Cc2ncc(-c3cc(C)cc(Nc4nccc(C(F)(F)F)n4)c3)s2)CCNC1=O (stereo not shown) [Example 91, Ethyl 3-{[5-(3-methyl-5-{[4-(trifluoromethyl)pyrimidin-2-yl]amino}phenyl)-1,3-thiazol-2-yl]-methyl}-2-oxopyrrolidine-3-carboxylate]
IC50 [1]: < 100 nM

CNC(=O)CN(C)C(=O)c1ncc(-c2cc(C)cc(Nc3nccc(C(F)(F)F)n3)c2)s1 [Example 87A-30]
IC50 [1]: < 100 nM

Cc1cc(Nc2ncc(F)c(C3CC3)n2)cc(-c2cnc([C@@]3(O)CC[C@H](C(=O)O)C(C)(C)C3)s2)c1 [Example 113A-58]
IC50 (rhSYK Activity, Table 113A): < 100 nM

Cc1cc(Nc2nccc(C(F)(F)F)n2)cc(-c2cnc(CNC3(C)CCCCC3CO)s2)c1 (stereo not shown) [Example 88A-55]
IC50 [1]: < 100 nM

CCOC(=O)CC(=O)N1CCCC(O)(c2ncc(-c3cc(C)cc(Nc4nccc(C(F)(F)F)n4)c3)s2)CC1 (stereo not shown) [Example 54D-73]
IC50 (rhSYK Activity, Table 54D): < 100 nM

Cc1cc(Nc2nccc(C(F)(F)F)n2)cc(-c2cnc(CNCCC(N)=O)s2)c1 [Example 88A-23]
IC50 [1]: < 100 nM

Cc1cc(Nc2nccc(C(F)(F)F)n2)cc(-c2cnc(-c3ccncc3)s2)c1 [Example 114-4]
IC50 [1]: < 100 nM

Cc1cc(Nc2nccc(C(F)(F)F)n2)cc(-c2cnc(C(=O)N3CCC(C)(O)C3)s2)c1 (stereo not shown) [Example 87B-12]
IC50 [1]: < 100 nM

Cc1cc(Nc2nccc(C)n2)cc(-c2cnc(C(C)(C)S(N)(=O)=O)s2)c1 [74A-12]
IC50 (rhSYK Activity, Table 74A): < 100 nM

Cc1cc(Nc2nccc(C(F)(F)F)n2)cc(-c2cnc(CNC(CO)C(C)O)s2)c1 (single isomer, unassigned) [Example 88A-43]
IC50 [1]: < 100 nM

COCC(O)CNC(=O)c1ncc(-c2cc(C)cc(Nc3nccc(C(F)(F)F)n3)c2)s1 (stereo not shown) [Example 87A-24]
IC50 [1]: < 100 nM

COC(=O)C1CCC(O)(c2ncc(-c3cc(C)cc(Nc4ncc(F)c(OC)n4)c3)s2)CC1(C)C (stereo not shown) [116A-35]
IC50 (rhSYK Activity, Table 116A): 100 to 1000 nM

Cc1cc(Nc2nccc(C(F)(F)F)n2)cc(-c2cnc(C3(O)CCC(NC(=O)Cn4cncn4)CC3)s2)c1 (stereo not shown) [Example 54E-11]
IC50 (rhSYK Activity, Table 54E): < 100 nM

COC/C=C/c1ccnc(Nc2cc(C)cc(-c3cnc(C4(O)CCC(C(=O)O)CC4)s3)c2)n1 (stereo not shown) [Example 104-2]
IC50 [1]: < 100 nM

COC(=O)C1CC(O)(c2ncc(-c3cc(C)cc(Nc4nccc(C(F)(F)F)n4)c3)s2)CN1C(N)=O (stereo not shown) [54B-37]
IC50 (rhSYK Activity, Table 54B): < 100 nM

Cc1cc(Nc2nccc(C(F)(F)F)n2)cc(-c2cnc(C(=O)N(C)CC3COCCO3)s2)c1 (stereo not shown) [Example 87A-23]
IC50 [1]: 100 to 1000 nM

Cc1cc(Nc2nccc(C(F)(F)F)n2)cc(-c2cnc(C3(NS(=O)(=O)C(F)(F)F)CCC3)s2)c1 [Example 61B-5]
IC50 (rhSYK Activity, Table 61B): < 100 nM

Cc1cc(Nc2nccc(C(F)(F)F)n2)cc(-c2cnc(C(=O)N3CC(O)CC3C(=O)O)s2)c1 (stereo not shown) [Example 87B-20]
IC50 [1]: < 100 nM

NS(=O)(=O)Cc1ncc(-c2cccc(Nc3nccc(C(F)(F)F)n3)c2)s1 [Example 75-1]
IC50 (rhSYK Activity, table after Example 75): < 100 nM

Cc1cc(Nc2nccc(C(F)(F)F)n2)cc(-c2cnc(C(C)(C)c3nnco3)s2)c1 [Example 82, N-(3-methyl-5-{2-[2-(1,3,4-oxadiazol-2-yl)propan-2-yl]-1,3-thiazol-5-yl}phenyl)-4-(trifluoromethyl)pyrimidin-2-amine]
IC50 [1]: < 100 nM

[2H]C([2H])([2H])c1cc(Nc2nccc(C(F)(F)F)n2)cc(-c2cnc([C@]3(O)CC[C@H](C(=O)O)CC3)s2)c1 [Example 43-1]
IC50 (rhSYK Activity, table after Example 43): < 100 nM

Cc1cc(Nc2nccc(C(F)(F)F)n2)cc(-c2cnc(-c3cnn(CCCO)c3)s2)c1 [Example 115-3]
IC50 (rhSYK Activity, Table 115): < 100 nM

Cc1cc(Nc2nccc(OC3CCOCC3)n2)cc(-c2cnc(C3(O)CCC3)s2)c1 [Example 94A-17]
IC50 [1]: < 100 nM

Cc1cc(Nc2nccc(C(F)(F)F)n2)cc(-c2cnc(C3(O)CCCN(C(=O)CC(C)O)CC3)s2)c1 (stereo not shown) [Example 54D-23]
IC50 (rhSYK Activity, Table 54D): < 100 nM

COC(=O)C1CCC(O)(c2ncc(-c3cc(Cl)cc(Nc4nccc(C(F)(F)F)n4)c3)s2)CC1(C)C (stereo not shown) [Example 113A-63]
IC50 (rhSYK Activity, Table 113A): 100 to 1000 nM

Cc1cc(Nc2ncc(F)c(C3CC3)n2)cc(-c2cnc([C@@]3(O)CC[C@H](C(=O)O)[C@H](C)C3)s2)c1 [Example 113A-33]
IC50 (rhSYK Activity, Table 113A): < 100 nM

Cc1cc(Nc2nccc([C@H](C)F)n2)cc(-c2cnc([C@@]3(O)CC[C@H](C(=O)O)C(C)(C)C3)s2)c1 [116A-40]
IC50 (rhSYK Activity, Table 116A): < 100 nM

Cc1cc(Nc2nccc(OC(C)CN3CC(C)OC3=O)n2)cc(-c2cnc(C3(O)CCC3)s2)c1 (stereo not shown) [Example 108A-27]
IC50 (rhSYK Activity, Table 108A): < 100 nM

Cc1cc(Nc2nccc(OCC3(C)CCCNC3)n2)cc(-c2cnc(C3(O)CCC3)s2)c1 (stereo not shown) [Example 108A-24]
IC50 (rhSYK Activity, Table 108A): < 100 nM

Cc1cc(Nc2nccc(C(C)C)n2)cc(-c2cnc(C3(O)CCCN(C(=O)C(C)O)CC3)s2)c1 (stereo not shown) [Example 54D-4]
IC50 (rhSYK Activity, Table 54D): < 100 nM

CCOC(=O)C1CC(C)C(O)(c2ncc(-c3cc(C)cc(Nc4nccc(C(F)(F)F)n4)c3)s2)CC1C (stereo not shown) [Example 113B-17]
IC50 (rhSYK Activity, Table 113B): < 100 nM

Cc1cc(Nc2nccc(OCCCc3cccnc3)n2)cc(-c2cnc(C3(O)CCC3)s2)c1 [Example 108A-29]
IC50 (rhSYK Activity, Table 108A): < 100 nM

Cc1cc(Nc2nccc(C(F)(F)F)n2)cc(-c2cnc(C(N[S+]([O-])C(C)(C)C)(C3CC3)C3CC3)s2)c1 (stereo not shown) [61A-2]
IC50 (rhSYK Activity, Table 61A): 100 to 1000 nM

Cc1cc(Nc2nccc(C(F)(F)F)n2)cc(-c2cnc(C3(O)CCCN(C(=O)C(O)CO)CC3)s2)c1 (stereo not shown) [Example 54D-27]
IC50 (rhSYK Activity, Table 54D): < 100 nM

Cc1cc(Nc2nccc(C(F)(F)F)n2)cc(-c2cnc(C3(O)CCCN(S(=O)(=O)NC(=O)OC(C)(C)C)CC3)s2)c1 (stereo not shown) [Example 54D-114]
IC50 (rhSYK Activity, Table 54D): < 100 nM

Cc1cc(Nc2nccc(C(F)(F)F)n2)cc(-c2cnc(C3(O)CCN(C(=O)c4ccccn4)CC3)s2)c1 [Example 54A-9]
IC50 (RHSYK Activity, Table 54A): < 100 nM

NC(=O)c1ncc(-c2cccc(Nc3nccc(C(F)(F)F)n3)c2)s1 [Example 87A-38]
IC50 [1]: < 100 nM

Cc1cc(Nc2nccc(OCCN3CCCNCC3)n2)cc(-c2cnc(C3(O)CCC3)s2)c1 [Example 108A-19]
IC50 (rhSYK Activity, Table 108A): < 100 nM

Cc1cc(Nc2nccc(OCCCOCc3ccccc3)n2)cc(-c2cnc(C3(O)CCC3)s2)c1 [Example 94A-13]
IC50 [1]: 100 to 1000 nM

COC(=O)C1CCC(O)(c2ncc(-c3cc(C)cc(Nc4ncc(F)c(C)n4)c3)s2)CC1(C)C (stereo not shown) [116A-25]
IC50 (rhSYK Activity, Table 116A): < 100 nM

Cc1cc(Nc2nccc(C(F)(F)F)n2)cc(-c2cnc(C3(O)CCC(NC(=O)C4CCCC(=O)N4)CC3)s2)c1 (stereo not shown) [Example 54E-28]
IC50 (rhSYK Activity, Table 54E): < 100 nM

Cc1cc(Nc2nccc(C(F)(F)F)n2)cc(-c2cnc(C3(O)CCCN(C(=O)c4ccc(O)cn4)CC3)s2)c1 (stereo not shown) [Example 54D-85]
IC50 (rhSYK Activity, Table 54D): < 100 nM

CCOC(=O)[C@H]1CC[C@@](O)(c2ncc(-c3cccc(Nc4nccc(C(F)(F)F)n4)c3)s2)CC1 [Example 33A-26]
IC50 (rhSYK Activity, Table 33-A): 100 to 1000 nM

Cc1cc(Nc2nccc(OC3CCCCC3)n2)cc(-c2cnc(C3(O)CCC3)s2)c1 [Example 94A-32]
IC50 [1]: 100 to 1000 nM

Cc1cc(Nc2nccc(C(F)(F)F)n2)cc(-c2cnc(C3(O)CCN(C(=O)CN(C)C)CC3)s2)c1 [Example 54A-7]
IC50 (RHSYK Activity, Table 54A): < 100 nM

Cc1cc(Nc2nccc(C(F)(F)F)n2)cc(-c2cnc(C(=O)N(CCO)CCO)s2)c1 [Example 87A-29]
IC50 [1]: < 100 nM

Cc1cc(Nc2nccc(OC3CCOC3)n2)cc(-c2cnc(C3(O)CCC3)s2)c1 (stereo not shown) [Example 94A-29]
IC50 [1]: < 100 nM
